Data published in patent US7981903B2, “2-[2-{phenylamino}-1H-pyrrolo[2,3-D]pyrimidin-4-yl)amino] benzamide derivatives as IGF-1R inhibitors for the treatment of cancer” (GlaxoSmithKline LLC, priority 2007, dated 2011).

What was measured:
human IR (hIR) = target: T1, human IR (hIR) (Homo sapiens, UniProt P06213); test: TR-FRET kinase assay of purified hIR; assay type: biochemical; settings: activated hIR 0.5 nM, 10 μM ATP, values given as pIC50 category
T1 construct: containing amino acid residues 979-1382 of human IR; made in house; host or cells: Sf9 cells (baculovirus), same process as hIGF1R
T1 sequence (P06213 979-1382): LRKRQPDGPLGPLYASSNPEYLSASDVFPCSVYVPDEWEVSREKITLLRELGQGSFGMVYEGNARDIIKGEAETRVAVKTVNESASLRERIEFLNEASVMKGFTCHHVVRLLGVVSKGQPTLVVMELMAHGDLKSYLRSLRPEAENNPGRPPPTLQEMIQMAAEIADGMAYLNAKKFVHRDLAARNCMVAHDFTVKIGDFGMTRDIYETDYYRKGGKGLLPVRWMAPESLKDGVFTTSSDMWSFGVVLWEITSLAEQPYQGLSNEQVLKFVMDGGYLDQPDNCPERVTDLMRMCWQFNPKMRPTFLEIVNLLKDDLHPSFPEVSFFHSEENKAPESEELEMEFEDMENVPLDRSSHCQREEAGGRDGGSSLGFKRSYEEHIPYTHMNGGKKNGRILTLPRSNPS

[1] = target: T2, NIH-3T3 cells overexpressing human IGF-1R (Homo sapiens, UniProt P08069); test: IGF-1R cellular autophosphorylation (DELFIA); assay type: cell-based
T2 construct: expressed in transfected cells; host or cells: NIH-3T3 (mouse fibroblasts)
T2 sequence (P08069 31-1367): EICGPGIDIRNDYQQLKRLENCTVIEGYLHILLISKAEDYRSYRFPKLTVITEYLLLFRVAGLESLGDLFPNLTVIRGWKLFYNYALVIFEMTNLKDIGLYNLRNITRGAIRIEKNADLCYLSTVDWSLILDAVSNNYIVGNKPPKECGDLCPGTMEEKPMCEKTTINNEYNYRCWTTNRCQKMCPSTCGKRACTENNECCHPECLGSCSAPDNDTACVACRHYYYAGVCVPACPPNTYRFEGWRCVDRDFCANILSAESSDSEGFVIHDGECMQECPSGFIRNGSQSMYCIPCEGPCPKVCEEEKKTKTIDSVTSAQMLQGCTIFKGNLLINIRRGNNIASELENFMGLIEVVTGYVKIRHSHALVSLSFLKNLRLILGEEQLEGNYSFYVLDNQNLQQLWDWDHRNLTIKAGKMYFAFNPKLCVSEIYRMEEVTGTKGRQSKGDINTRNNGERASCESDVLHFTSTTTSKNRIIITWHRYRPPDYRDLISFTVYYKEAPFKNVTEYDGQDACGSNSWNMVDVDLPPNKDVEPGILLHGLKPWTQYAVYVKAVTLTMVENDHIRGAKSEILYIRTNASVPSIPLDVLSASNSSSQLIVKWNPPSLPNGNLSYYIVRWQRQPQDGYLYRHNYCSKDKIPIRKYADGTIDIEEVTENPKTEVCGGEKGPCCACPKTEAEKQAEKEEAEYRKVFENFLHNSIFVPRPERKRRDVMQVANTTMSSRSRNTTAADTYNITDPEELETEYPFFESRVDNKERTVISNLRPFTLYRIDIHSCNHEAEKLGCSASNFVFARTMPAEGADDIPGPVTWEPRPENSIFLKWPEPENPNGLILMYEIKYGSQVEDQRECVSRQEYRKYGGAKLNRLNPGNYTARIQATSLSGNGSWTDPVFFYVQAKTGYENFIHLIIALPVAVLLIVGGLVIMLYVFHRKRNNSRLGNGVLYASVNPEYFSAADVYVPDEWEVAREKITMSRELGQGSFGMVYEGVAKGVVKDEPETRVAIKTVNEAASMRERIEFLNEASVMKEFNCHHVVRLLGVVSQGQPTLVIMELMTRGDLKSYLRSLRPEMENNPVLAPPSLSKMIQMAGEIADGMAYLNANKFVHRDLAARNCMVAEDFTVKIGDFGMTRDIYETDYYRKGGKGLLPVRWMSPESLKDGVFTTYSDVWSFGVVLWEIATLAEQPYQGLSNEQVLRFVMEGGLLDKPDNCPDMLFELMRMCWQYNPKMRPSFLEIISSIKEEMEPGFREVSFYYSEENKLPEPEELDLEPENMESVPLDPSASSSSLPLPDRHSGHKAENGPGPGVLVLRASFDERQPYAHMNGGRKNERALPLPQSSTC
How it was run: (§1)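 Receptor autophosphorylation measured by DELFIA, capturing IGF-1R or IRβ and detecting with europium anti-pTyr, reported as percent of IGF-1- or insulin-stimulated signal. Compounds (30 uM to 1.5 nM) added 2 h before ligand, then 15 min stimulation (IGF-1 30 ng/ml or insulin 3 ug/ml).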

Colo205 = test: Inhibition of cell proliferation (CellTiter-Glo or InCell analyzer), Colo205; assay type: cell-based; settings: Homo sapiens, COLO 205, 72 h / 3 days, values given as IC50 category
How it was run: In one

[2] = target: T3, NIH-3T3 cells overexpressing human IR (Homo sapiens, UniProt P06213); test: IR cellular autophosphorylation (DELFIA); assay type: cell-based; settings: 2 h compound, insulin 3 ug/ml for 15 minutes, IC50 category
T3 construct: expressed in transfected cells; host or cells: NIH-3T3 (mouse fibroblasts)
T3 sequence (P06213 28-1382): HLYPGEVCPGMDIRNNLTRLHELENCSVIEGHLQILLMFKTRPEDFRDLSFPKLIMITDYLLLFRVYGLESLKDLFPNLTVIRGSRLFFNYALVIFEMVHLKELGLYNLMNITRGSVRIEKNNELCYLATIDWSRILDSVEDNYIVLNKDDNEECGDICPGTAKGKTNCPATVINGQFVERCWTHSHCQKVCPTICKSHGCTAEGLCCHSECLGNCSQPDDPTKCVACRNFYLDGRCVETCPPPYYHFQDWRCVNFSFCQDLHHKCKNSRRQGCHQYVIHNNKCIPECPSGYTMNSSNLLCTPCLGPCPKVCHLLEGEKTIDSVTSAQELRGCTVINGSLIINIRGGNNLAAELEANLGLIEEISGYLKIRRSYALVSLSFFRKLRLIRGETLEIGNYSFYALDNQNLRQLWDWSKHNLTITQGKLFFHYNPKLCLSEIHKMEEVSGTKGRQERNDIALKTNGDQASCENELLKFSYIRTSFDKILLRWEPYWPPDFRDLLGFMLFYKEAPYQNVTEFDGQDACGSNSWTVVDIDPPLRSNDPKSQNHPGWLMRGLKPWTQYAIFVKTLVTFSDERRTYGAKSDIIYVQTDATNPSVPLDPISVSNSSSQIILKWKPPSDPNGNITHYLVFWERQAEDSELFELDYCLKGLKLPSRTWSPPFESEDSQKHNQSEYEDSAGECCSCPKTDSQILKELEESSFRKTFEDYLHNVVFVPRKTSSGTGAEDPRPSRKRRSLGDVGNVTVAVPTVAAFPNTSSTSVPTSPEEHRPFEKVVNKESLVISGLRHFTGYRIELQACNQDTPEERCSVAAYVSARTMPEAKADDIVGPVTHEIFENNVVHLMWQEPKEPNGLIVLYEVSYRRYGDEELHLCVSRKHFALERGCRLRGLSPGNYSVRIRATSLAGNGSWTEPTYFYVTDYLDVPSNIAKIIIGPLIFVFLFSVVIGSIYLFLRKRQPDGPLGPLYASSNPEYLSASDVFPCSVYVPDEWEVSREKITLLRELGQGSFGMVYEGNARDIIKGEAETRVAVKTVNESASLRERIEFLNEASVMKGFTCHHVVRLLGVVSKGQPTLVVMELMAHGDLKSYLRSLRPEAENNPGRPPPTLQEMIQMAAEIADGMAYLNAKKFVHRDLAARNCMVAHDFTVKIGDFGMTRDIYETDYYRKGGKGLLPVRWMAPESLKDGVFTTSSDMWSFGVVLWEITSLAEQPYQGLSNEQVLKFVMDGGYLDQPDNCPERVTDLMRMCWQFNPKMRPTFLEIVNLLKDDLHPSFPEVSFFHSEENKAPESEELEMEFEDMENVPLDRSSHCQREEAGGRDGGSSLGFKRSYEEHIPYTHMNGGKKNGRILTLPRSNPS
How it was run: as §1

In the case of `COc1cc(N2CCOCC2)ccc1Nc1nc(Nc2cc(F)c(F)cc2C(N)=O)c2cc[nH]c2n1` [Example 104, 4,5-difluoro-2-[(2-{[2-(methyloxy)-4-(4-morpholinyl)phenyl]amino}-1H-pyrrolo[2,3-d]pyrimidin-4-yl)amino]benzamide], the IC50 (human IR (hIR)) is reported as 0.251 to 1 nM, the IC50 [1] is reported as under 100 nM and the IC50 (Colo205) is reported as over 1000 nM.

Work on `COc1cc(N2CCC(N3CC[C@H](F)C3)CC2)ccc1Nc1nc(Nc2cc(F)ccc2C(N)=O)c2cc[nH]c2n1` [Example 75, 4-fluoro-2-[(2-{[4-{4-[(3S)-3-fluoro-1-pyrrolidinyl]-1-piperidinyl}-2-(methyloxy)phenyl]amino}-1H-pyrrolo[2,3-d]pyrimidin-4-yl)amino]benzamide] yielded an IC50 (human IR (hIR)) of 0.251 to 1 nM, an IC50 [1] of under 100 nM and an IC50 (Colo205) of under 250 nM. For the same compound, the IC50 [2] was under 100 nM.

`COc1cc2c(cc1Nc1nc(Nc3cccc(F)c3C(=O)NCC(C)C)c3cc[nH]c3n1)N(C(=O)CN(C)C)CC2` [Example 157, 2-[(2-{[1-(N,N-dimethylglycyl)-5-(methyloxy)-2,3-dihydro-1H-indol-6-yl]amino}-1H-pyrrolo[2,3-d]pyrimidin-4-yl)amino]-6-fluoro-N-(2-methylpropyl)benzamide] was tested, and the IC50 (human IR (hIR)) was 1.26 to 3.98 nM, the IC50 [1] was 100 to 500 nM and the IC50 (Colo205) was over 1000 nM. For the same compound, the IC50 [2] was 100 to 500 nM.

For `COc1cc(N2CCC(C3CCN(CCS(C)(=O)=O)CC3)CC2)ccc1Nc1nc(Nc2cccc(F)c2C(N)=O)c2cc[nH]c2n1` [Example 112, 2-fluoro-6-({2-[(2-(methyloxy)-4-{1′-[2-(methylsulfonyl)ethyl]-4,4′-bipiperidin-1-yl}phenyl)amino]-1H-pyrrolo[2,3-d]pyrimidin-4-yl}amino)benzamide], the IC50 (human IR (hIR)) was 1.26 to 3.98 nM, the IC50 [1] was 100 to 500 nM and the IC50 (Colo205) was under 250 nM.

`COc1cc2c(cc1Nc1nc(Nc3cccc(F)c3C(N)=O)c3cc[nH]c3n1)CN(C(C)C)CC2` [Example 236, 2-fluoro-6-[(2-{[2-(1-methylethyl)-6-(methyloxy)-1,2,3,4-tetrahydro-7-isoquinolinyl]amino}-1H-pyrrolo[2,3-d]pyrimidin-4-yl)amino]benzamide] showed an IC50 (human IR (hIR)) of 1.26 to 3.98 nM, an IC50 [1] of 100 to 500 nM and an IC50 (Colo205) of 250 to 1000 nM. It also gave an IC50 [2] of 100 to 500 nM.

`CCC(C)N1CCc2cc(OC)c(Nc3nc(Nc4cccc(F)c4C(N)=O)c4cc[nH]c4n3)cc2C1` (stereo not drawn) [Example 237, 2-fluoro-6-[(2-{[6-(methyloxy)-2-(1-methylpropyl)-1,2,3,4-tetrahydro-7-isoquinolinyl]amino}-1H-pyrrolo[2,3-d]pyrimidin-4-yl)amino]benzamide] was tested, and the IC50 (human IR (hIR)) was 1.26 to 3.98 nM, the IC50 [1] was 100 to 500 nM and the IC50 (Colo205) was 250 to 1000 nM. The IC50 [2] was under 100 nM.

`COc1cc2c(cc1Nc1nc(Nc3cc(F)cc(F)c3C(N)=O)c3cc[nH]c3n1)CN(CCF)CC2` [Example 239, 2,4-difluoro-6-[(2-{[2-(2-fluoroethyl)-6-(methyloxy)-1,2,3,4-tetrahydro-7-isoquinolinyl]amino}-1H-pyrrolo[2,3-d]pyrimidin-4-yl)amino]benzamide] showed an IC50 (human IR (hIR)) of 1.26 to 3.98 nM, an IC50 [1] of over 500 nM and an IC50 (Colo205) of over 1000 nM. The IC50 [2] was over 500 nM.

With `CCNC(=O)c1c(F)cccc1Nc1nc(Nc2cc3c(cc2OC)CCN3C(=O)CN(C)C)nc2[nH]ccc12` [Example 126, 2-[(2-{[1-(N,N-dimethylglycyl)-5-(methyloxy)-2,3-dihydro-1H-indol-6-yl]amino}-1H-pyrrolo[2,3-d]pyrimidin-4-yl)amino]-N-ethyl-6-fluorobenzamide] the IC50 (human IR (hIR)) was 1.26 to 3.98 nM, the IC50 [1] was 100 to 500 nM and the IC50 (Colo205) was 250 to 1000 nM. The IC50 [2] was 100 to 500 nM.

With `COc1cc(N2CCC(N3CCCCC3)CC2)ccc1Nc1nc(Nc2cc(F)c(F)cc2C(N)=O)c2cc[nH]c2n1` [Example 100, 2-[(2-{[4-(1,4′-bipiperidin-1′-yl)-2-(methyloxy)phenyl]amino}-1H-pyrrolo[2,3-d]pyrimidin-4-yl)amino]-4,5-difluorobenzamide] the IC50 (human IR (hIR)) was 0.251 to 1 nM, the IC50 [1] was under 100 nM and the IC50 (Colo205) was under 250 nM.

Compound `COc1cc(N2CCN(C(C)C)CC2)c(F)cc1Nc1nc(Nc2cccc(F)c2C(N)=O)c2cc[nH]c2n1` [Example 48, 2-fluoro-6-[(2-{[5-fluoro-4-[4-(1-methylethyl)-1-piperazinyl]-2-(methyloxy)phenyl]amino}-1H-pyrrolo[2,3-d]pyrimidin-4-yl)amino]benzamide] has an IC50 [1] of 100 to 500 nM, an IC50 (Colo205) of 250 to 1000 nM and an IC50 [2] of under 100 nM.

In the case of `COc1cc(N2CCC(O)CC2)ccc1Nc1nc(Nc2cc(F)c(F)cc2C(N)=O)c2cc[nH]c2n1` [Example 99], the IC50 (human IR (hIR)) is reported as 0.251 to 1 nM, the IC50 [1] is reported as under 100 nM and the IC50 (Colo205) is reported as 250 to 1000 nM.

With `COc1cc(N2CCC(N3CCOCC3)CC2)ccc1Nc1nc(Nc2ccc(F)cc2C(N)=O)c2cc[nH]c2n1` [Example 59, 5-fluoro-2-{[2-({2-(methyloxy)-4-[4-(4-morpholinyl)-1-piperidinyl]phenyl}amino)-1H-pyrrolo[2,3-d]pyrimidin-4-yl]amino}benzamide] the IC50 (human IR (hIR)) was 0.251 to 1 nM, the IC50 [1] was under 100 nM and the IC50 (Colo205) was under 250 nM.

In the case of `COc1cc(N2CCN(C(C)C)CC2)ccc1Nc1nc(Nc2cccc(F)c2C(N)=O)c2cc[nH]c2n1` [Example 46, 2-fluoro-6-[(2-{[4-[4-(1-methylethyl)-1-piperazinyl]-2-(methyloxy)phenyl]amino}-1H-pyrrolo[2,3-d]pyrimidin-4-yl)amino]benzamide], the IC50 [1] is reported as 100 to 500 nM, the IC50 (Colo205) is reported as under 250 nM and the IC50 [2] is reported as 100 to 500 nM.

`COc1c(Nc2nc(Nc3cccc(F)c3C(N)=O)c3cc[nH]c3n2)ccc(N2CCN(C(C)C)CC2)c1F` [Example 51, 2-fluoro-6-[(2-{[3-fluoro-4-[4-(1-methylethyl)-1-piperazinyl]-2-(methyloxy)phenyl]amino}-1H-pyrrolo[2,3-d]pyrimidin-4-yl)amino]benzamide] was tested, and the IC50 [1] was over 500 nM, the IC50 (Colo205) was 250 to 1000 nM and the IC50 [2] was over 500 nM.

`COc1ccc(N2CCN(C)CC2)cc1Nc1nc(Nc2ccccc2C(N)=O)c2cc[nH]c2n1` [Example 9, 2-[(2-{[2-(methyloxy)-5-(4-methyl-1-piperazinyl)phenyl]amino}-1H-pyrrolo[2,3-d]pyrimidin-4-yl)amino]benzamide] showed an IC50 (human IR (hIR)) of 1.26 to 3.98 nM, an IC50 [1] of 100 to 500 nM and an IC50 (Colo205) of under 250 nM.

For `COc1cc(N2CCN(CCS(C)(=O)=O)CC2)c(C)cc1Nc1nc(Nc2cccc(F)c2C(N)=O)c2cc[nH]c2n1` [Example 52, 2-fluoro-6-({2-[(5-methyl-2-(methyloxy)-4-{4-[2-(methylsulfonyl)ethyl]-1-piperazinyl}phenyl)amino]-1H-pyrrolo[2,3-d]pyrimidin-4-yl}amino)benzamide], the IC50 [1] was under 100 nM, the IC50 (Colo205) was over 1000 nM and the IC50 [2] was over 500 nM.

For `COc1cc(N2CCN(C(C)C)CC2)ccc1Nc1nc(Nc2ccc(Br)cc2C(N)=O)c2cc[nH]c2n1` [Example 68, 5-bromo-2-[(2-{[4-[4-(1-methylethyl)-1-piperazinyl]-2-(methyloxy)phenyl]amino}-1H-pyrrolo[2,3-d]pyrimidin-4-yl)amino]benzamide], the IC50 (human IR (hIR)) was 0.251 to 1 nM, the IC50 [1] was 100 to 500 nM and the IC50 (Colo205) was under 250 nM.

`CN(C)CC(=O)Nc1ccc(Cl)c(Nc2nc(Nc3ccccc3C(N)=O)c3cc[nH]c3n2)c1` [Example 18, 2-{[2-({2-chloro-5-[(N,N-dimethylglycyl)amino]phenyl}amino)-1H-pyrrolo[2,3-d]pyrimidin-4-yl]amino}benzamide] was tested, and the IC50 (human IR (hIR)) was 0.251 to 1 nM, the IC50 [1] was under 100 nM and the IC50 (Colo205) was under 250 nM.
